Experiments:
[1] = Acute toxicity (mortality during 24 hours, i.p.); details: mouse, in vivo, ip
Experimental: (§1) The products to be studied were administered by the intraperitoneal route at increasing doses to batches of 10 mice. The mortality provoked by the products studied were noted during the 24 hours following administration of the product.
(§2) From the results obtained, the LD 50, i.e. the dose provoking the death of 50% of the animals studied, is determined for each of the products studied.
(§3) Three products of the prior art are given in this Table by way of comparison: […]

mice [2] = details: mouse, in vivo, ip
Experimental: as §1
During the same experiments, the convulsivant threshold dose of the product is also noted, i.e. the minimum dose for which a convulsivant activity begins to be shown.
as §3

mice [3] = experiment: Acute toxicity (mortality during 24 hours, i.p.); details: mouse, in vivo, ip, 1440 min
Experimental: as §1, §2, §3

[4] = system: ptosis induced by reserpine; experiment: Antagonism of the ptosis induced by reserpine; assay type: in vivo, female mice CDI (Charles River); details: Mus musculus, ip, reserpine 2 mg/kg i.v. simultaneously, 1 hour
Experimental: This test, described by GOURET (Journal de Pharmacologie (Paris), 1973, 4 (1), 105-128), was made on the female mice CDI (Charles River), weighing 20±1 g. The reserpine causes a ptosis one hour after intravenous administration thereof; certain antidepressants oppose this ptosis. The following protocol was chosen: The substances to be studied were administered by the i.p. route. […] One hour after administration of reserpine, the number of animals not presenting ptosis is noted. This test was carried out on batches of 10 mice, the results are expressed in percentage of animals not presenting ptosis and are the average of at least two experiments. By way of comparison, the results obtained with the three products of the prior art, Minaprine, CM 30070 and CM 30071 have also been indicated.

despair reaction = experiment: Despair reaction (behavioral despair); assay type: in vivo, female mouse, CDI (Charles River); details: one hour before the test; for Behavioral Despair (change of immobility time): immobility between 2nd and 6th minute
Experimental: This test was carried out in the female mouse, CDI (Charles River), weighing 18 to 23 g, according to the method described by Porsolt (Archives Internationales de Pharmacodynamie, 1977, 229, 327-336). The principle of this test is as follows: when a mouse is placed in a narrow recipient, filled with water, it struggles, then, after 2 to 4 mins., it becomes still and floats on its stomach, its back rounded, its rear paws drawn up under its body and it makes only a few movements necessary for maintaining its head out of the water. This reaction is called the despair reaction. Certain psychotherapeutic agents, particularly the antidepressants, extend the time during which the mouse struggles. The following protocol was chosen: The products to be studied were administered by the i.p. route one hour before the test. For the test, the animals are placed in a narrow recipient (10×10×10 cm), filled with water, up to a height of 6 cm, the temperature of the water being 24° C.±2° C. […] Each substance was studied on a batch of 10 mice. The results are the average of at least two experiments.

[5] = per os; cited from earlier work
[6] = in vivo; cited from earlier work

Compound | LD50 at 24 h ([1]; mice, 24 hours) [mg/kg] | Convulsivant threshold dose (mice [2]) [mg/kg] | ED50 [4] [mg/kg] | LD50 at 24 h [1] [mg/kg] | other results
Cc1cc(-c2ccccc2)nnc1NCCCCN [CM 30487, 3-(4-aminobutylamino)4-methyl 6-phenyl pyridazine] | > 200 | > 200 | – | – | –
Cc1cc(-c2ccccc2)nnc1NCCN(C)C [CM 30071, reference compound] | – | 100 | ~50 | – | LD50 (mice [3]): 118 (101-139) mg/kg; Behavioral Despair, result in words (despair reaction; 10 mg/kg i.p.): inactive
NCCNc1cc(-c2ccccc2)cnn1 [SR 95086] | – | > 200 | – | > 200 | –
CNCCNc1nnc(-c2ccccc2)cc1C [SR 95029, 2-(2-Methylamino Ethylamino)4-Methyl 6-Phenyl Pyridazine] | > 200 | 200 | – | – | –
Cc1cc(-c2ccccc2)nnc1NCCN [CM 30099, 3-(2-Amino Ethylamino)4-Methyl 6-Phenyl Pyridazine] | > 200 | 200 | 16 | – | Behavioral Despair (change of immobility time) (despair reaction; 10 mg/kg i.p.): -50%
Cc1cc(-c2ccccc2)nnc1NCCN1CCOCC1 [Minaprine] | – | 35 | 5 | – | Behavioral Despair (change of immobility time) (despair reaction; 10 mg/kg i.p.): -35%; dose at which the product proves convulsivant [5]: higher than 100 mg/kg; type of psychotherapeutic action [6]: "disinhibitory" activity
NCCNc1nnccc1-c1ccccc1 [SR 95002] | – | 100 | – | ~150 | –
Cc1cc(-c2ccc(O)cc2)nnc1NCCN [SR 95073, 3-(2-Amino Ethylamino)4-Methyl 6-(4-Hydroxy Phenyl)Pyridazine] | > 200 | > 200 | – | – | –
NCCNc1ccc(-c2ccccc2)nn1 [SR 95085] | – | > 200 | – | > 200 | –
Cc1cc(-c2ccccc2)nnc1NCCCN [CM 30486, 3-(3-aminopropylamino)4-methyl 6-phenyl pyridazine] | > 200 | > 200 | ~10 | – | Behavioral Despair (change of immobility time) (despair reaction; 10 mg/kg i.p.): -20%
CCN(CC)CCNc1nnc(-c2ccccc2)cc1C [CM 30070, reference compound] | – | 60 | ~50 | 80 | Behavioral Despair, result in words (despair reaction; 25 mg/kg i.p.): inactive

— patent US4508720A, “Amino derivatives of pyridazine, and compositions thereof for the central nervous system” (Sanofi, priority 1981, dated 1985)
